Data published in US8512739B2, “Use of low-glycemic sweeteners in food and beverage compositions” (Cargill, Incorporated, priority 2002, dated 2013).

What was measured:
rat intestinal powder = assay: In vitro digestibility assay using rat intestinal powder; format: in vitro ADME; settings: in 4 hours
Protocol: The results provided in this example are derived from in vitro digestibility assays using rat intestinal powder available from Sigma/Aldrich, Saint Louis, Mo., Catalog Number I-1630). […] Free glucose concentration in the reaction mixture was analyzed over time by the HPLC method described above.

[1] = test system: Enzyme from the LM NRRL-B-21297 strain; assay: Suitability of acceptors: oligosaccharide formation from sucrose and acceptor; format: biochemical, Leuconostoc mesenteroides; settings: for Weight Ratio of Oligosaccharide to Fructose: 0.4% by weight each of sucrose and acceptor, pH 6, 2 hours at 37° C., DP3-DP7 minus starting material; for suitability as acceptor: compared with the acceptors of Table 2.0, two hour reaction time
Protocol: Enzyme from the LM NRRL-B-21297 strain was tested to determine the suitability of various acceptors. Enzyme was prepared using the methods described herein.
In determining the suitability of the preparation of the sucrose/acceptor products, 0.4% by weight of each sucrose and acceptor were mixed with enzyme solution in 0.01 M sodium gluconate buffer, pH 6, and the reaction proceeded for 2 hours at 37° C.
The carbohydrate profiles of products generated by the enzyme reactions with the blends of sucrose and syrups and syrup solids herein, were analyzed by high performance liquid chromatography (HPLC) using two (2) Bio-Rad Aminex HPX42A carbohydrate columns (300 mm×7.8 mm) available from Bio-Rad, Hercules, Calif., in succession, with water as the eluate at 0.2 ml/min, at a temperature of 65° C.
The reaction rate was estimated based on the amount of oligosaccharides generated from each acceptor and normalized against the fructose concentration in each reaction. The results are reported below in Table 2.0. The values reported for oligosaccharides to fructose are for DP3-DP7 minus starting material.

OC[C@H]1O[C@H](O[C@H]2[C@H](O)[C@@H](O)C(O)O[C@@H]2CO)[C@H](O)[C@@H](O)[C@@H]1O (mixture of isomers) [Maltose, reference compound]
digested (rat intestinal powder): 88% | Weight Ratio of Oligosaccharide to Fructose [1]: 2.02

OC[C@H]1O[C@H](OC[C@H]2OC(O)[C@H](O)[C@@H](O)[C@@H]2O)[C@H](O)[C@@H](O)[C@@H]1O (stereo partly drawn) [Isomaltose]
Weight Ratio of Oligosaccharide to Fructose [1]: 0.93

OC[C@H]1O[C@H](O[C@H]2[C@H](O)[C@@H](O)[C@@H](O[C@H]3[C@H](O)[C@@H](O)[C@@H](O[C@H]4[C@H](O)[C@@H](O)C(O)O[C@@H]4CO)O[C@@H]3CO)O[C@@H]2CO)[C@H](O)[C@@H](O)[C@@H]1O (stereo partly drawn) [Maltotetrose]
Weight Ratio of Oligosaccharide to Fructose [1]: 0.38

OC[C@H]1O[C@H](OC[C@H]2O[C@H](O[C@H]3[C@H](O)[C@@H](O)C(O)O[C@@H]3CO)[C@H](O)[C@@H](O)[C@@H]2O)[C@H](O)[C@@H](O)[C@@H]1O (stereo partly drawn) [Panose]
Weight Ratio of Oligosaccharide to Fructose [1]: 1.56

O=C[C@@H](O)[C@H](O)[C@H](O)CO [arabinose]
suitability as acceptor [1]: not as effective acceptors

O[C@H]1[C@H](O)[C@@H](O)[C@H](O)[C@@H](O)[C@H]1O [myo-inositol]
suitability as acceptor [1]: not as effective acceptors

O=C[C@H](O)[C@@H](O)[C@H](O)CO [xylose]
suitability as acceptor [1]: not as effective acceptors

Maltotriose
Weight Ratio of Oligosaccharide to Fructose [1]: 0.53
